Several values for one entry are separate records, joined by “and”; a condition that tells them apart may be missing. Equal values may be shown once. Peptide text beside a SMILES is read from it.
Tests used:
[1] = system: modified ribosomes (23S rRNA modified); assay: In vitro translation: suppression of UAG codon at position 10 of DHFR mRNA, S-30 systems having modified ribosomes; type: biochemical, E. coli; details: for Suppression efficiency in different S-30 systems, having modified ribosomes (%): position 10 of E. coli DHFR, relative to wild-type DHFR = 100
Method: Preparation of Aminoacyl-tRNACUAs. The activation of suppressor tRNACUAs was carried out as described previously.^4,5 Briefly, 100-μL reaction mixture of 100 mM Na Hepes, pH 7.5, contained 1.0 mM ATP, 15 mM MgCl2, 100 μg of suppressor tRNACUA-COH, 0.5 A260 unit of N-pentenoyl-protected aminoacyl-pdCpA, 15% DMSO, and 100 units of T4 RNA ligase. The reaction mixture was incubated at 37° C. for 1.5 h and quenched by the addition of 0.1 vol of 3 M NaOAc, pH 5.2. The N-protected aminoacylated tRNA was precipitated with 3 vol of cold ethanol. The efficiency of ligation was estimated by 8% polyarylamide-7 M urea gel electrophoresis (pH 5.0).
The N-pentenoyl-protected aminoacyl-tRNACUAs were deprotected by treatment with 5 mM aqueous […] at 25° C. for 15 min. The solution was centrifuged, and the supernatant was adjusted to 0.3 M NaOAc and treated with 3 vol of cold ethanol to precipitate the aminoacylated tRNA. The tRNA pellet was collected by centrifugation, washed with 70% aq EtOH, air dried and dissolved in 20 μL of RNase free water.
Preparation of S-30 Extracts from Cells Having Modified Ribosomes. Aliquots (5-10 μL) from liquid stocks of E. coli BL-21 (DE-3) cells, harboring plasmids with a wild-type or modified rrnB gene, were placed on LB agar supplemented with 100 µg/mL of ampicillin and grown at 37° C. for 16-18 h. One colony was picked from each agar plate and transferred into 3 mL of LB medium supplemented with 100 μg/mL of ampicillin and 0.5 mM IPTG.
(§1) In vitro Protein Translation. Protein translation reactions were carried out in 12-2000 μL of incubation mixture containing 0.4 μL/μL of S-30 system, 100 ng/μL of plasmid, 35 mM Tris acetate, pH 7.4, 190 mM potassium glutamate, 30 mM ammonium acetate, 2 mM DTT, 0.2 mg/mL total E. coli tRNA, 3.5% PEG 6000, 20 μg/mL folinic acid, 20 mM ATP and GTP, 5 mM CTP and UTP, 100 μM amino acids mixture, 0.5 μCi/μL of ^35S-methionine for analytical purposes only and 1 μg/mL rifampicin. In the case of plasmids having a gene with a TAG codon, a suppressor tRNA was added to a concentration of 0.8 μg/μL. Reactions were carried out at 37° C. for 1 h (for 12 μL reaction mixtures) to 1.5 h (for 2000 μL reaction mixtures) and terminated by chilling on ice. Aliquots from in vitro translation mixtures were analyzed by SDS-PAGE followed by quantification of the radioactive bands by phosphorimager analysis.
Incorporation of Dipeptides 2, 3 and 4 into DHFR Using the Modified Ribosomes. Initially, glycylphenylalanine (2) was chosen to screen the selected modified ribosomes for their ability to incorporate a dipeptide into DHFR. It was anticipated that minimal steric hindrance and more flexibility at the N-terminus of the dipeptide (a glycine residue) would enable optimal positioning of the amine for a nucleophilic attack in the PTC of the modified ribosomes. A modified DHFR construct, having a TAG codon in position 10 (pETDH10 plasmid) was used for the incorporation of glycylphenylalanine.
The suppression efficiencies were expressed relative to the wild-type DHFR synthesis. As a negative control, wild-type DHFR synthesis in the presence of nonacylated-tRNACUA was measured for each experiment. The amounts of DHFR produced were quantified with a phosphoimager, which monitored the incorporation of ^35S-methionine into DHFR. Using glycylphenylalanyl-tRNACUA, S-30 preparations having the modified ribosomes from clone groups 1, 2, 3 and 9 produced full length DHFR in ˜9% yields relative to the wild-type DHFR synthesis (Table 3). The modified ribosomes from clone groups 4-8 incorporated glycylphenylalanine (2) with low yields (˜2-4%). For dipeptide 2, best incorporation yields (up to 12%) were obtained by S-30 system having modified ribosomes from clone group 9 (2057AGUGAGA2063 and 2502AUCCGA2507).

wild-type ribosomes = assay: In vitro translation: suppression of UAG codon at position 10 of DHFR mRNA, S-30 preparation having wild-type ribosomes; type: biochemical, E. coli; details: compared to wild-type DHFR synthesis
Method: as §1
Incorporation of Glycylphenylalanine (2) Using the Wild-Type Ribosome. The wild-type ribosomes synthesize polypeptide chains by incorporating one α-L-amino acid at a time via one monoacylated tRNA for each corresponding codon in the mRNA transcript.^6 Ribosome mediated sequential incorporation of two amino acids for one codon using bisacylated tRNAs has not been reported to date. […]

[2] = system: modified ribosomes from clone 010326R6; assay: In vitro translation: suppression of TAG codon at position 66 of GFP (pETGFP66), S-30 from clone 010326R6; type: biochemical, Escherichia coli
Method: as §1
The free amino acids both have λex in the range 296-302 nm but the λem of 7 is somewhat red-shifted compared to that of 6. […] As a negative control, wild-type GFP synthesis from the modified mRNA in the presence of nonacylated tRNACUA was measured for each experiment. The amounts of GFP produced were quantified with a phosphoimager, which monitored the incorporation of ^35S-methionine into proteins. […]

[3] = system: E. coli clones having mutations in two regions of the PTC in the 23S rRNA (modified ribosomes); assay: Inhibition of cell growth by dipeptidyl-puromycin aminonucleoside 1 (selection of modified ribosomes); type: cell-based; details: 100 μg/mL 1
Method: Selection of Modified Ribosomes using Dipeptidyl-puromycin Aminonucleoside The selection experiments were carried on in a fashion similar to that described previously. (1) Briefly, library from 419 clones, having mutations in two regions of the PTC in the 23S rRNA (2057-2063 and 2496-2501 or 2502-2507) and organized in five 96 well plates (“master plates”), were used for selection of variants with modified ribosome. Three new plates were prepared for each “master plate” by transferring 2 μL of culture from each well of the master plate to the corresponding well of new plate and 98 μL assay solution was added to each well.
A solution without any puromycin derivative was used for control plate. All plates were incubated at 37° C. for 16-18 h in a thermostated shaker, and extent of cell growth was estimated by measuring the optical density at 600 nm. Inhibition of cell growth by 1 was estimated as described in previously. Clones with inhibition value more than 50% were taken for verification. […] Plates were incubated at 37° C. for 16-18 h in a thermostated shaker, extent of cell growth was estimated by measuring the optical density at 600 nm and IC50 data was calculated for each culture.
It was anticipated that the ribosomes of those clones which show sensitivity for 1 would be more likely to accommodate dipeptides or dipeptidomimetics in the PTC during peptide synthesis. […] Plasmids from these clones were isolated and sequenced.

With `NCC(=O)N[C@@H](Cc1ccccc1)C(=O)O` [dipeptide 2, glycylphenylalanine] (H-Gly-Phe-OH) the “Suppression efficiency in different S-30 systems, having modified ribosomes (%)” value ([1]; clone group 1) was ~9% and 8.4 ± 1.6%, the “Suppression efficiency in different S-30 systems, having modified ribosomes (%)” value ([1]; clone group 2) was ~8% and 9.5 ± 0.5% and the “Suppression efficiency in different S-30 systems, having modified ribosomes (%)” value ([1]; clone group 3) was 9% and 8.6 ± 1.5%. The “Suppression efficiency in different S-30 systems, having modified ribosomes (%)” value ([1]; clone group 4) was 3.1 ± 0.2%, the “Suppression efficiency in different S-30 systems, having modified ribosomes (%)” value ([1]; clone group 5) was 4.5 ± 0.7% and the “Suppression efficiency in different S-30 systems, having modified ribosomes (%)” value ([1]; clone group 6) was 3.5%. The “Suppression efficiency in different S-30 systems, having modified ribosomes (%)” value ([1]; clone group 7) was 2.1 ± 0.1%, the “Suppression efficiency in different S-30 systems, having modified ribosomes (%)” value ([1]; clone group 8) was 2.2% and the “full length DHFR yield relative to the wild-type DHFR synthesis” value ([1]; clone groups 1, 2, 3 and 9, position 10 of DHFR) was ~9%. For the same compound, the “incorporation yield relative to the wild-type DHFR synthesis” value ([1]; clone groups 4-8, position 10 of DHFR) was 2-4% and the suppression efficiency (wild-type ribosomes) was ~2%.
`N[C@@H](Cc1ccccc1)C(=O)NCC(=O)O` [dipeptide 3, phenylalanylglycine] (H-Phe-Gly-OH) was tested, and the “Suppression efficiency in different S-30 systems, having modified ribosomes (%)” value ([1]; clone group 1) was ~14% and 13.9 ± 1.7%, the “Suppression efficiency in different S-30 systems, having modified ribosomes (%)” value ([1]; clone group 2) was ~12% and 10.6 ± 0.5% and the “Suppression efficiency in different S-30 systems, having modified ribosomes (%)” value ([1]; clone group 3) was 10% and 12.7 ± 2.5%. For the same compound, the “Suppression efficiency in different S-30 systems, having modified ribosomes (%)” value ([1]; clone group 9) was ~13% and 13.3 ± 2.5%.
With `COc1ccc(-c2sc(CN)nc2C(=O)O)cc1` [dipeptidomimetic 7] the “suppression yield (full length GFP) relative to wild-type GFP synthesis” value [2] was ~3.5%.
With `COc1ccc(C[C@H](N)C(=O)NCC(=O)N[C@H]2[C@@H](O)[C@H](n3cnc4c(N(C)C)ncnc43)O[C@@H]2CO)cc1` [puromycin derivative 1, 9-[3″-Deoxy-3″-(O-methyl-(S)-tyrosylglycyl)-β-D-ribofuranosyl]-6-(N,N″ dimethylamino)purine] the “Inhibition by Puromycin Derivative 1 (%)” value ([3]; Wild-type ribosomes) was <1%, the “Inhibition by Puromycin Derivative 1 (%)” value ([3]; clone 010309R3 (clone group 1)) was 63.2% and the “Inhibition by Puromycin Derivative 1 (%)” value ([3]; clone 010310R1 (clone group 4)) was 52.9%. The “Inhibition by Puromycin Derivative 1 (%)” value ([3]; clone 010310R4 (clone group 2)) was 52.9%, the “Inhibition by Puromycin Derivative 1 (%)” value ([3]; clone 010322 (clone group 1)) was 77% and the “Inhibition by Puromycin Derivative 1 (%)” value ([3]; clone 010326R1 (clone group 5)) was 50.4%. The “Inhibition by Puromycin Derivative 1 (%)” value ([3]; clone 010326R5 (clone group 3)) was 50.4%, the “Inhibition by Puromycin Derivative 1 (%)” value ([3]; clone 010326R6 (clone group 1)) was 50.4% and the “Inhibition by Puromycin Derivative 1 (%)” value ([3]; clone 010328R2 (clone group 5)) was 77%. For the same compound, the “Inhibition by Puromycin Derivative 1 (%)” value ([3]; clone 010328R4 (clone group 1)) was 61%, the “Inhibition by Puromycin Derivative 1 (%)” value ([3]; clone 040322 (clone group 6)) was 54% and the “Inhibition by Puromycin Derivative 1 (%)” value ([3]; clone 040329 (clone group 7)) was 54%. The “Inhibition by Puromycin Derivative 1 (%)” value ([3]; clone 040338 (clone group 8)) was 56% and the “Inhibition by Puromycin Derivative 1 (%)” value ([3]; clone 080337 (clone group 9)) was 51%.
phenylalanylphenylalanyl [dipeptide 4] was tested, and the “Suppression efficiency in different S-30 systems, having modified ribosomes (%)” value ([1]; clone group 1) was ~4%.

From patent US11434492B2, “Ribosome-mediated incorporation of peptides and peptidomimetics” (Arizona Board of Regents on behalf of Arizona State …, priority 2015, dated 2022)
